In patent USRE40086E1, “Method for treating bacterial infection with novel 7-substituted-9-substituted amino 6-demethyl-6-deoxytetracyclines” (Wyeth Holdings Corporation, priority 1991, dated 2008):

Columns and labels:
[1] = test system: S. aureus UBMS 90-1 (tetM); experiment: MIC, agar dilution; assay type: cell-based; settings: S. aureus UBMS 90-1 TetM; Table IA; unit assumed
E. coli #311 (MP) = experiment: MIC, agar dilution (Table IA); assay type: cell-based; settings: unit assumed
E. coli UBMS 89-1 (tetM) = experiment: MIC, agar dilution; assay type: cell-based; settings: E. coli UBMS 89-1 TetM; Table IA; unit assumed
[2] = test system: X. maltophilia NEMC 87210; experiment: MIC, agar dilution (Table IA); assay type: cell-based; settings: unit assumed
[3] = test system: S. haemolyticus AVAH 88-3; experiment: MIC, agar dilution; assay type: cell-based; settings: S. hemolyticus AVHAH 88-3; Table IA; unit assumed
[4] = test system: S. aureus UBMS 90-2 (tetM); experiment: MIC, agar dilution; assay type: cell-based; settings: S. aureus UBMS 90-2 TetM; Table IA; unit assumed
E. faecalis 12201 = experiment: MIC, agar dilution; assay type: cell-based; settings: Enterococcus 12201; Table IA; unit assumed
E. coli MC4100 TetB = experiment: MIC, agar dilution (Table IA); assay type: cell-based; settings: unit assumed
[5] = test system: S. aureus UBMS 90-3 (Sensitive); experiment: MIC, agar dilution; assay type: cell-based; settings: S. aureus UBMS 90-3; Table IA; unit assumed
[6] = test system: S. aureus Smith (Sensitive); experiment: MIC, agar dilution; assay type: cell-based; settings: S. aureus SMITH (MP); Table IA; unit assumed
[7] = test system: S. aureus ATCC 29213 (Sensitive); experiment: MIC, agar dilution; assay type: cell-based; settings: S. aureus ATCC 29213; Table IA; unit assumed
S. aureus SMITH (sens) = experiment: In vivo antibacterial evaluation, acute lethal infection in mice; settings: Oral
Excerpt: In Vivo Antibacterial Evaluation (Table VII)

E. coli UBMS 88-1 (tetB) = experiment: MIC, agar dilution; assay type: cell-based; settings: E. coli UBMS 88-1 TetB; Table IA; unit assumed
[8] = test system: S. aureus IVES 2943 (meth. resistant); experiment: MIC, agar dilution; assay type: cell-based; settings: S. aureus IVES 2943; Table IA; unit assumed
E. coli J2175 = experiment: MIC, agar dilution (Table IA); assay type: cell-based; settings: unit assumed
E. coli J3272 TetD = experiment: MIC, agar dilution (Table IA); assay type: cell-based; settings: unit assumed
[9] = test system: S. aureus UBMS 88-7 (tetK); experiment: MIC, agar dilution; assay type: cell-based; settings: S. aureus UBMS 88-7 TetK; Table IA; unit assumed
[10] = test system: S. aureus UBMS 88-5 (tetM); experiment: MIC, agar dilution; assay type: cell-based; settings: S. aureus UBMS 88-5 TetM; Table IA; unit assumed
E. coli MC4100 Tet sens. = experiment: MIC, agar dilution (Table IA); assay type: cell-based; settings: unit assumed
[11] = test system: S. aureus UBMS 88-4 (Sensitive); experiment: MIC, agar dilution; assay type: cell-based; settings: S. aureus UBMS 88-4; Table IA; unit assumed
[12] = test system: E. coli UBMS 89-2 (Sensitive); experiment: MIC, agar dilution; assay type: cell-based; settings: E. coli UBMS 89-2 Tet Sens.; Table IA; unit assumed
E. coli UBMS 90-5 = experiment: MIC, agar dilution (Table IA); assay type: cell-based; settings: unit assumed
[13] = test system: S. aureus IVES 1983 (meth. resistant); experiment: MIC, agar dilution; assay type: cell-based; settings: S. aureus IVES 1983; Table IA; unit assumed
E. coli J3272 TetC = experiment: MIC, agar dilution (Table IA); assay type: cell-based; settings: unit assumed
E. faecalis ATCC 29212 = experiment: MIC, agar dilution; assay type: cell-based; settings: E. faecalis ATCC 29212; Table IA; unit assumed
E. coli PRP1 TetA = experiment: MIC, agar dilution (Table IA); assay type: cell-based; settings: unit assumed
E. coli ATCC 25922 = experiment: MIC, agar dilution; assay type: cell-based; settings: E. coli ATCC 25922; Table IA; unit assumed
S. aureus NEMC 8769/89-4 = experiment: MIC, agar dilution (Table IA); assay type: cell-based; settings: unit assumed
S. aureus ROSE (MP) = experiment: MIC, agar dilution (Table IA); assay type: cell-based; settings: unit assumed
S. mariescens FDOR 8733 = experiment: MIC, agar dilution (Table IA); assay type: cell-based; settings: unit assumed
E. coli BAJ9003 = experiment: MIC, agar dilution (Table IA); assay type: cell-based; settings: unit assumed
E. coli UBMS 90-4 (tetM) = experiment: MIC, agar dilution; assay type: cell-based; settings: E. coli UBMS 90-4 TetM; Table IA; unit assumed
[14] = test system: Ps. acruginosa ATCC 27853; experiment: MIC, agar dilution (Table IA); assay type: cell-based; settings: unit assumed
E. coli J3272 Tet sens. = experiment: MIC, agar dilution (Table IA); assay type: cell-based; settings: unit assumed

| Structure (SMILES) | Antibacterial activity (MIC) [1] [µg/mL] | Antibacterial activity (MIC) (E. coli #311 (MP)) [µg/mL] | Antibacterial activity (MIC) (E. coli UBMS 89-1 (tetM)) [µg/mL] | Antibacterial activity (MIC) [2] [µg/mL] | Antibacterial activity (MIC) [3] [µg/mL] | Antibacterial activity (MIC) [4] [µg/mL] | Antibacterial activity (MIC) (E. faecalis 12201) [µg/mL] | Antibacterial activity (MIC) (E. coli MC4100 TetB) [µg/mL] | Antibacterial activity (MIC) [5] [µg/mL] | Antibacterial activity (MIC) [6] [µg/mL] | Antibacterial activity (MIC) [7] [µg/mL] | Antibacterial activity (MIC) (E. coli UBMS 88-1 (tetB)) [µg/mL] | Antibacterial activity (MIC) [8] [µg/mL] | Antibacterial activity (MIC) (E. coli J2175) [µg/mL] | Antibacterial activity (MIC) (E. coli J3272 TetD) [µg/mL] | Antibacterial activity (MIC) [9] [µg/mL] | Antibacterial activity (MIC) [10] [µg/mL] | Antibacterial activity (MIC) (E. coli MC4100 Tet sens.) [µg/mL] | Antibacterial activity (MIC) [11] [µg/mL] | Antibacterial activity (MIC) [12] [µg/mL] | also measured |
| --- | --- | --- | --- | --- | --- | --- | --- | --- | --- | --- | --- | --- | --- | --- | --- | --- | --- | --- | --- | --- | --- |
| CC(C(=O)Nc1cc(N(C)C)c2c(c1O)C(=O)C1=C(O)C3(O)C(=O)C(C(N)=O)=C(O)C(N(C)C)C3CC1C2)N1CCCC1.Cl.Cl (stereo not drawn) [AAA, [7S-(7alpha,10aalpha)]-N-[9-(Aminocarbonyl)-4,7-bis(dimethylamino)-5,5a,6,6a,7,10,10a,12-octahydro-1,8,10a,11-tetrahydroxy-10,12-dioxo-2-naphthacenyl)-alpha-methyl-1-pyrrolidineacetamide dihydrochloride] | 0.5 | 0.25 | 0.12 | 0.5 | 0.5 | 0.25 | 0.12 | 0.5 | 0.25 | 0.25 | 0.25 | 0.5 | 0.5 | 0.5 | 0.12 | 0.5 | 0.25 | 0.12 | 0.25 | 0.5 | ED50 (S. aureus SMITH (sens)): >16 mg/kg; Antibacterial activity (MIC) (E. coli UBMS 90-5): 0.5 µg/mL; Antibacterial activity (MIC) [13]: 0.5 µg/mL; Antibacterial activity (MIC) (E. coli J3272 TetC): 0.5 µg/mL; Antibacterial activity (MIC) (E. faecalis ATCC 29212): 0.12 µg/mL; Antibacterial activity (MIC) (E. coli PRP1 TetA): 0.5 µg/mL; Antibacterial activity (MIC) (E. coli ATCC 25922): 0.25 µg/mL; Antibacterial activity (MIC) (S. aureus NEMC 8769/89-4): 0.12 µg/mL; Antibacterial activity (MIC) (S. aureus ROSE (MP)): 2 µg/mL; Antibacterial activity (MIC) (S. mariescens FDOR 8733): 4 µg/mL; Antibacterial activity (MIC) (E. coli BAJ9003): 0.06 µg/mL; Antibacterial activity (MIC) (E. coli UBMS 90-4 (tetM)): 0.5 µg/mL; Antibacterial activity (MIC) [14]: > 32 µg/mL |
| CCCCCNCC(=O)Nc1cc(N(C)C)c2c(c1O)C(=O)C1=C(O)C3(O)C(=O)C(C(N)=O)=C(O)C(N(C)C)C3CC1C2.Cl.Cl (stereo not drawn) [DDD, [4S-(4alpha,12aalpha)]-4,7-Bis(dimethylamino)-1,4 4a,5,5a,6,11,12a-octahydro-3,10-12,12a-tetrahydroxy-1,11-dioxo-9-[[(pentylamino)acetyl]amino)-2-naphthacenecarboxamide dihydrochloride] | 1 | 0.5 | 0.25 | 0.5 | 0.5 | 0.5 | 0.25 | 0.5 | 0.5 | 0.25 | 1 | 0.5 | 4 | 0.5 | 0.25 | 2 | 0.5 | 0.12 | 0.5 | 0.5 | ED50 (S. aureus SMITH (sens)): 8 to 16 mg/kg; Antibacterial activity (MIC) (E. coli UBMS 90-5): 0.5 µg/mL; Antibacterial activity (MIC) [13]: 4 µg/mL; Antibacterial activity (MIC) (E. coli J3272 TetC): 0.5 µg/mL; Antibacterial activity (MIC) (E. faecalis ATCC 29212): 0.25 µg/mL; Antibacterial activity (MIC) (E. coli PRP1 TetA): 1 µg/mL; Antibacterial activity (MIC) (E. coli ATCC 25922): 0.5 µg/mL; Antibacterial activity (MIC) (S. aureus NEMC 8769/89-4): 0.25 µg/mL; Antibacterial activity (MIC) (S. aureus ROSE (MP)): 4 µg/mL; Antibacterial activity (MIC) (S. mariescens FDOR 8733): 8 µg/mL; Antibacterial activity (MIC) (E. coli BAJ9003): 0.12 µg/mL; Antibacterial activity (MIC) (E. coli UBMS 90-4 (tetM)): 0.5 µg/mL; Antibacterial activity (MIC) [14]: 32 µg/mL |
| CN(C)c1cc(NC(=O)CNCC(=O)O)c(O)c2c1CC1CC3C(N(C)C)C(O)=C(C(N)=O)C(=O)C3(O)C(O)=C1C2=O (centres unmarked) [KKK] | > 32 | > 32 | > 32 | > 32 | > 32 | 32 | > 32 | > 32 | 16 | 16 | 32 | > 32 | > 32 | > 32 | > 32 | > 32 | > 32 | 32 | 32 | > 32 | Antibacterial activity (MIC) (E. coli UBMS 90-5): > 32 µg/mL; Antibacterial activity (MIC) [13]: > 32 µg/mL; Antibacterial activity (MIC) (E. coli J3272 TetC): > 32 µg/mL; Antibacterial activity (MIC) (E. coli J3272 Tet sens.): > 32 µg/mL; Antibacterial activity (MIC) (E. faecalis ATCC 29212): 16 µg/mL; Antibacterial activity (MIC) (E. coli PRP1 TetA): > 32 µg/mL; Antibacterial activity (MIC) (E. coli ATCC 25922): > 32 µg/mL; Antibacterial activity (MIC) (S. aureus NEMC 8769/89-4): 32 µg/mL; Antibacterial activity (MIC) (S. aureus ROSE (MP)): > 32 µg/mL; Antibacterial activity (MIC) (S. mariescens FDOR 8733): > 32 µg/mL; Antibacterial activity (MIC) (E. coli BAJ9003): 16 µg/mL; Antibacterial activity (MIC) (E. coli UBMS 90-4 (tetM)): > 32 µg/mL; Antibacterial activity (MIC) [14]: > 32 µg/mL |
| CN(C)CCCC(=O)Nc1cc(N(C)C)c2c(c1O)C(=O)C1=C(O)[C@]3(O)C(=O)C(C(N)=O)=C(O)[C@@H](N(C)C)C3CC1C2.Cl.Cl (stereo partly drawn) [ZZ, [4S-(4alpha,12aalpha)]-4,7-Bis(dimethylamino)-9-[[4-(dimethylamino)-1-oxobutyl]amino]-1,4,4a,5,5a,6,11,12a-octahydro-3,10,12,12a-tetrahydroxy-1,11-dioxo-2-naphthacenecarboxamide dihydrochloride] | 8 | 16 | 32 | 32 | 8 | 4 | 8 | > 32 | 2 | 2 | 2 | > 32 | > 32 | 16 | 4 | 16 | 8 | 2 | 2 | 16 | Antibacterial activity (MIC) (E. coli UBMS 90-5): 16 µg/mL; Antibacterial activity (MIC) [13]: > 32 µg/mL; Antibacterial activity (MIC) (E. coli J3272 TetC): 32 µg/mL; Antibacterial activity (MIC) (E. faecalis ATCC 29212): 4 µg/mL; Antibacterial activity (MIC) (E. coli PRP1 TetA): > 32 µg/mL; Antibacterial activity (MIC) (E. coli ATCC 25922): 8 µg/mL; Antibacterial activity (MIC) (S. aureus NEMC 8769/89-4): 1 µg/mL; Antibacterial activity (MIC) (S. aureus ROSE (MP)): > 32 µg/mL; Antibacterial activity (MIC) (S. mariescens FDOR 8733): > 32 µg/mL; Antibacterial activity (MIC) (E. coli BAJ9003): 1 µg/mL; Antibacterial activity (MIC) (E. coli UBMS 90-4 (tetM)): 16 µg/mL; Antibacterial activity (MIC) [14]: > 32 µg/mL |
